Like-named read-outs stand apart in the source and are kept apart here.
Legend:
Format in all cases: cell-based
AR protein = molecular target: T1, AR protein (Homo sapiens, UniProt P10275, T878A); assay: Degradation of AR protein in LNCaP cells (Western blot); conditions: for inhibition at 0.01 µM: read-out: Degradation rates of the AR protein in LNCaP cells, 10 nM (%); for inhibition at 0.1 µM: read-out: Degradation rates of the AR protein in LNCaP cells, 100 nM (%)
T1 construct: degradation activity of the compounds disclosed in the present disclosure on AR protein in LNCaP cells; host or cells: LNCaP FGC
T1 sequence (P10275 1-920 T878A): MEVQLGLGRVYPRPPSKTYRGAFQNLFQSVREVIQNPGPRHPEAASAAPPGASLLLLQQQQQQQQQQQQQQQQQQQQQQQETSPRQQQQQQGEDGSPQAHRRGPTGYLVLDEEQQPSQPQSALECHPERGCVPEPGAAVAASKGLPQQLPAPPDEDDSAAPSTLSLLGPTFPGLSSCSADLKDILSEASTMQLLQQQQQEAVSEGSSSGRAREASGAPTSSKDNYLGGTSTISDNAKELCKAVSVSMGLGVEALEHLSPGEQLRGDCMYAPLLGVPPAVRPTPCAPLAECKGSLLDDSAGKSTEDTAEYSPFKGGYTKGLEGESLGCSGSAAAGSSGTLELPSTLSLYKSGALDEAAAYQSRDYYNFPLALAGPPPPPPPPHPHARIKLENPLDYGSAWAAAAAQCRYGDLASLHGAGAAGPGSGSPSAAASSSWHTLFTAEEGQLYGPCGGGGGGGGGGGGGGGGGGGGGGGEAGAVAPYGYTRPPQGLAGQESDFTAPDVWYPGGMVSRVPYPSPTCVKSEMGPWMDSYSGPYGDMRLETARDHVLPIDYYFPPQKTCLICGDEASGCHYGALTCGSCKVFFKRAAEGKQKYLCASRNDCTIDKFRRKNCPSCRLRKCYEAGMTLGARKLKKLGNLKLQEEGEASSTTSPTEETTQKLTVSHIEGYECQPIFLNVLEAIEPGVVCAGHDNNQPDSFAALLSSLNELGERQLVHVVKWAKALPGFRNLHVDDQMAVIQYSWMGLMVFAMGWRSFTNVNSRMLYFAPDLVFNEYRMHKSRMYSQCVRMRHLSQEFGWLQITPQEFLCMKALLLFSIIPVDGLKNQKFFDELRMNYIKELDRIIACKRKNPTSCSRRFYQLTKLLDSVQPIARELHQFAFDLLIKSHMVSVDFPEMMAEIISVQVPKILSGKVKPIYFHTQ
Method in brief: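 AR assessed by SDS-PAGE/Western blot with infrared imaging; band greyscale normalised to GAPDH gave percent degradation.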

LNCaP FGC cells = assay: Inhibition of proliferation of LNCaP cells (WST-8); conditions: Homo sapiens, LNCaP, 96 h
Description: The cells were cultured in a cell culture incubator with 5% CO2 at 37° C. overnight. […] On the sixth day, 96 well plates were taken out, and 20 μL of WST-8 (Beytime, C0040) reagent was added to each well.

VCaP cells = assay: Inhibition of proliferation of VCaP cells (WST-8); conditions: Homo sapiens, read-out: IC50 for inhibiting the proliferation of VCaP cells
Description: The inhibitory activity of the compounds disclosed in the present disclosure on the proliferation of VCaP cells
On the first day of the experiment, […] were inoculated in 96 well plates at a density of 15000 cells per well using DMEM medium containing 10% fetal bovine serum, with 100 μL of cell suspension per well. The cells were cultured in a cell culture incubator with 5% CO2 at 37° C. overnight. […] On the ninth day, 96 well plates were taken out, and 20 μL of WST-8 (Beytime, C0040) reagent was added to each well.

[1] = read-out: IC50 for inhibiting the proliferation of LNCaP cells, LNCaP FGC cells, 96 hours, WST-8 absorbance at 450 nm
[2] = LNCaP cells, compound 10 nM, 8 hours, Western blot grayscale, GAPDH internal reference
[3] = LNCaP cells, compound 100 nM, 8 hours, Western blot grayscale, GAPDH internal reference
[4] = LNCaP FGC cells, 96 hours, WST-8 absorbance at 450 nm, read-out: IC50 for inhibiting the proliferation of LNCaP cells
[5] = VCaP cells, 168 hours, WST-8 absorbance at 450 nm

| IC50 (LNCaP FGC cells; [4]) [µM] | IC50 (VCaP cells; [5]) [µM] | SMILES | IC50 (LNCaP FGC cells; [1]) [µM] | IC50 (VCaP cells; VCaP, 168 h) [µM] | further results |
| --- | --- | --- | --- | --- | --- |
|  |  | N#Cc1ccc(O[C@H]2CC[C@H](NC(=O)c3ccc(N4CCC(N5CCC6(CC5)CC(F)(F)c5cc7c(cc5O6)C(=O)N(C5CCC(=O)NC5=O)C7=O)CC4)nn3)CC2)cc1Cl (stereo partly drawn) [Compound 38] | 2.4 | 5.29 | inhibition at 0.01 µM (AR protein; LNCaP, 8 h): 29%; inhibition at 0.1 µM (AR protein; LNCaP, 8 h): 48% |
|  |  | CC1(C)C(=O)N(c2ccc(C#N)c(C(F)(F)F)c2)C(=S)N1c1ccc(C(=O)N2CC(N3CCC4(CC3)COc3cc5c(cc3C4)C(=O)N(C3CCC(=O)NC3=O)C5=O)C2)c(F)c1 (stereo not drawn) [Compound 112] | 8.18 | 5.12 |  |
|  |  | CC1(C)C(=O)N(c2ccc(C#N)c(C(F)(F)F)c2)C(=S)N1c1ccc(C(=O)N2CCC3(CC2)CC(N2CCC4(CC2)COc2cc5c(cc2C4)C(=O)N(C2CCC(=O)NC2=O)C5=O)C3)c(F)c1 (stereo not drawn) [Compound 123] | 2.71 | 3.38 |  |
|  |  | CC1(C)C(=O)N(c2ccc(C#N)c(C(F)(F)F)c2)C(=S)N1c1ccc(C(=O)N2CC3(CC(N4CCC5(CCc6cc7c(cc6O5)C(=O)N(C5CCC(=O)NC5=O)C7=O)CC4)C3)C2)c(F)c1 (stereo not drawn) [Compound 100] | 27.9 | 0.62 |  |
| 0.93 | 1.2 | N#Cc1ccc(O[C@H]2CC[C@H](NC(=O)c3ccc(N4CCN(C5CCC6(CCc7cc8c(cc7O6)C(=O)N(C6CCC(=O)NC6=O)C8=O)CC5)CC4)nn3)CC2)cc1Cl (stereo partly drawn) [Compound 29] |  |  | inhibition at 0.01 µM (AR protein; [2]): 35%; inhibition at 0.1 µM (AR protein; [3]): 63% |
| 6.05 | 7.4 | N#Cc1ccc(O[C@H]2CC[C@H](NC(=O)c3ccc(N4CCC5(CC4)COc4cc6c(cc4O5)C(=O)N(C4CCC(=O)NC4=O)C6=O)nn3)CC2)cc1Cl (stereo partly drawn) [Compound 75] |  |  | inhibition at 0.01 µM (AR protein; [2]): 41%; inhibition at 0.1 µM (AR protein; [3]): 36% |
|  |  | CC1(C)C(=O)N(c2ccc(C#N)c(C(F)(F)F)c2)C(=S)N1c1ccc(C(=O)N2CCC3(CCC(N4CCC5(CC4)COc4cc6c(cc4C5)C(=O)N(C4CCC(=O)NC4=O)C6=O)CC3)C2)c(F)c1 (stereo not drawn) [Compound 130] | 2.66 | 3.61 |  |
|  |  | CC1(C)C(=O)N(c2ccc(C#N)c(C(F)(F)F)c2)C(=S)N1c1ccc(C(=O)N2CCC(CN3CCC4(CC3)COc3cc5c(cc3C4)C(=O)N(C3CCC(=O)NC3=O)C5=O)CC2)c(F)c1 (stereo not drawn) [Compound 82] | 3.39 | 4.26 |  |
|  |  | CC1(C)C(=O)N(c2ccc(C#N)c(C(F)(F)F)c2)C(=S)N1c1ccc(C(=O)N2CCC(F)(CN3CC4(CCc5cc6c(cc5O4)C(=O)N(C4CCC(=O)NC4=O)C6)C3)CC2)c(F)c1 (stereo not drawn) [Compound 81] | 3.86 | 0.03 |  |
| 0.85 | 0.02 | COC1(CN2CCC3(CC2)COc2c(ccc4c2C(=O)N(C2CCC(=O)NC2=O)C4)C3)CCN(c2ccc(C(=O)NC3CCC(Oc4ccc(C#N)c(Cl)c4)CC3)nn2)CC1 (stereo not drawn) [Compound 186] |  |  |  |
|  |  | CC1(C)C(=O)N(c2ccc(C#N)c(C(F)(F)F)c2)C(=S)N1c1ccc(C(=O)N2CCC3(CCC(N4CCC5(CC4)COc4cc6c(cc4C5)C(=O)N(C4CCC(=O)NC4=O)C6=O)CC3)CC2)c(F)c1 (stereo not drawn) [Compound 113] | 5.56 | 2.81 |  |
| 0.56 | 0.38 | N#Cc1ccc(O[C@H]2CC[C@H](NC(=O)c3ccc(N4CC[C@@H](CN5CCC6(CCc7cc8c(cc7O6)C(=O)N(C6CCC(=O)NC6=O)C8=O)CC5)C4)nn3)CC2)cc1Cl (stereo partly drawn) [Compound 21] |  |  |  |
|  |  | CC1(C)C(=O)N(c2ccc(C#N)c(C(F)(F)F)c2)C(=S)N1c1ccc(C(=O)N2CC[C@@H](CN3CCC4(CC3)COc3cc5c(cc3C4)C(=O)N(C3CCC(=O)NC3=O)C5=O)C2)c(F)c1 (stereo partly drawn) [Compound 83] | 7.06 | 9.73 |  |
|  |  | CC1(C)C(=O)N(c2ccc(C#N)c(C(F)(F)F)c2)C(=S)N1c1ccc(C(=O)N2CC[C@H](CN3CCC4(CC3)COc3cc5c(cc34)C(=O)N(C3CCC(=O)NC3=O)C5=O)C2)c(F)c1 (stereo partly drawn) [Compound 125] | 6.97 | 9.29 |  |
|  |  | COC1(CN2CC3(CCc4cc5c(cc4O3)CN(C3CCC(=O)NC3=O)C5=O)C2)CCN(C(=O)c2ccc(N3C(=S)N(c4ccc(C#N)c(C(F)(F)F)c4)C(=O)C3(C)C)cc2F)CC1 (stereo not drawn) [Compound 89] | 3.24 | 0.35 |  |
|  |  | CC1(CN2CCC3(CC2)COc2cc4c(cc2C3)C(=O)N(C2CCC(=O)NC2=O)C4=O)CCN(C(=O)c2ccc(N3C(=S)N(c4ccc(C#N)c(C(F)(F)F)c4)C(=O)C3(C)C)cc2F)CC1 (stereo not drawn) [Compound 114] | 7.63 | 3.29 |  |
|  |  | CC1(C)C(=O)N(c2ccc(C#N)c(C(F)(F)F)c2)C(=S)N1c1ccc(C(=O)N2CCC(CN3CCC4(CCc5cc6c(cc5O4)CN(C4CCC(=O)NC4=O)C6=O)CC3)CC2)c(F)c1 (stereo not drawn) [Compound 85] | 5.34 | 7.4 |  |
| 1.11 | 0.57 | COC1(CN2CCC3(CC2)Cc2cc4c(cc2O3)C(=O)N(C2CCC(=O)NC2=O)C4=O)CCN(c2ccc(C(=O)N[C@H]3CC[C@H](Oc4ccc(C#N)c(Cl)c4)CC3)nn2)CC1 (stereo partly drawn) [Compound 199] |  |  |  |
| 59.9 | 0.002 | N#Cc1ccc(O[C@H]2CC[C@H](NC(=O)c3ccc(N4CCC(N5CCC(C(=O)N6CCC7(CC6)COc6c7ccc7c6CN(C6CCC(=O)NC6=O)C7=O)CC5)CC4)nn3)CC2)cc1Cl (stereo partly drawn) [Compound 160] |  |  | inhibition at 0.01 µM (AR protein; [2]): 67%; inhibition at 0.1 µM (AR protein; [3]): 76% |
|  |  | N#Cc1ccc(O[C@H]2CC[C@H](NC(=O)c3ccc(N4CC(N5CCC6(CC5)Oc5cc7c(cc5CC6(F)F)C(=O)N(C5CCC(=O)NC5=O)C7=O)C4)nn3)CC2)cc1Cl (stereo partly drawn) [Compound 37] | 4.53 | 3.23 | inhibition at 0.01 µM (AR protein; LNCaP, 8 h): 5%; inhibition at 0.1 µM (AR protein; LNCaP, 8 h): 29% |
| 4.55 | 2.27 | COC1(CN2CCC3(CCc4cc5c(cc4O3)C(=O)N(C3CCC(=O)NC3=O)C5)CC2)CCN(c2ccc(C(=O)N[C@H]3CC[C@H](Oc4ccc(C#N)c(Cl)c4)CC3)nn2)CC1 (stereo partly drawn) [Compound 131] |  |  |  |

| SMILES | IC50 (LNCaP FGC cells; [4]) [µM] | IC50 (VCaP cells; [5]) [µM] | IC50 (LNCaP FGC cells; [1]) [µM] | IC50 (VCaP cells; VCaP, 168 h) [µM] | further results |
| --- | --- | --- | --- | --- | --- |
| COC1(CN2CC3(CCc4cc5c(cc4O3)C(=O)N(C3CCC(=O)NC3=O)C5=O)C2)CCN(C(=O)c2ccc(N3C(=S)N(c4ccc(C#N)c(C(F)(F)F)c4)C(=O)C3(C)C)cc2F)CC1 (stereo not drawn) [Compound 88] | 0.53 | 0.17 |  |  |  |
| CC1(C)C(=O)N(c2ccc(C#N)c(C(F)(F)F)c2)C(=S)N1c1ccc(C(=O)N2CCC(CN3CC4(CCc5cc6c(cc5O4)CN(C4CCC(=O)NC4=O)C6=O)C3)CC2)c(F)c1 (stereo not drawn) [Compound 124] | 7.91 | 2.96 |  |  |  |
| N#Cc1ccc(O[C@H]2CC[C@H](NC(=O)c3ccc(N4CCC5(CC4)CC(N4CCC6(CC4)COc4c6ccc6c4C(=O)N(C4CCC(=O)NC4=O)C6=O)C5)nn3)CC2)cc1Cl (stereo partly drawn) [Compound 143] | 0.35 | 0.02 |  |  |  |
| CC1(C)C(=O)N(c2ccc(C#N)c(C(F)(F)F)c2)C(=S)N1c1ccc(C(=O)N2CCC(CN3CCN(c4cc5c(cc4F)C(=O)N(C4CCC(=O)NC4=O)C5=O)CC3)CC2)c(F)c1 (stereo not drawn) [Compound 87] | 5.16 | 4.19 |  |  |  |
